Source: US20110263694A1, “Use of Xanthone Derivatives as a Medicament for Cancer” (MUSEUM NATIONAL D'HISTOIRE NATURELLE, priority 2008, published 2011)

Tests used:
ESKOL cells [1] = assay: Antiproliferative effect on ESKOL cells (viable cell count, Coulter counter); format: cell-based, human; settings: 1 and 10 μg/ml; 1, 2 or 4 days; FIGS. 1A and 1B
Experimental: FIG. 1: The antiproliferative effects of M1, M2, M4, M5 and M6 were compared as indicated in the Examples Section on ESKOL cells. ESKOL cells were seeded at 2×10^5 cells/ml in the wells of micro-titration plate in the presence or absence (medium alone: ◯, DMSO: […]) of M1 (□), M2 (▪), M4 (▴), M5 ([…]), M6 (◯) at the concentrations of 1 μg/ml (A) and 10 μg/ml (B). After various times of incubation (1, 2 or 4 days), aliquots were harvested and the concentration of viable cells was measured in a Coulter counter as indicated in the examples.
The anti-proliferative effects of the isolated molecules were investigated on the ESKOL cell line derived from a hairy cell leukemia patient, a chronic B cell malignancy (Harvey et al, Leuk Res. 1991; 15: 733-744).
Cells were routinely cultured at seeding densities of 2×10^6 cells/ml in RPMI-1640 medium supplemented with 2 mM glutamine, 1 mM sodium pyruvate, 100 IU/ml penicillin, 100 μg/ml streptomycin and 10% FCS (PAA Laboratories, Pasching, Austria) and cultures were performed at 37° C. in an humidified atmosphere containing 5% CO2.
For the assay, ESKOL cells were seeded at 2×10^5/ml in 24-well microtitration plate, together with two concentrations (1 and 10 μg/ml) of the […] xanthones or 1% DMSO (solvent) as control. After 1, 2 and 4 days of culture, aliquots of cells were collected and the cell concentration was evaluated by counting the number of viable cells with a Coulter Multisizer counter Z2 (Coultronics, Margency, France) allowing the discrimination between viable and dead cells and debris according to size distribution.
Cells were cultured in duplicates or triplicates and each experiment repeated 2 to 5 times.

ESKOL cells [2] = assay: Enrichment in cytoplasmic nucleosomes (DNA cleavage) in ESKOL cells; format: cell-based, human; settings: 2 days, 1 or 10 μg/ml; FIG. 2B
Experimental: B/ The percentage of enrichment in cytoplasmic nucleosomes was evaluated simultaneously as a surrogate for DNA cleavage.
The detection of cytoplasmic histone-associated DNA fragments (mono- and oligonucleosomes) was performed in cell lysates from aliquots of 20,000 cells using an ELISA with anti-histone and anti-DNA fragment mAbs (Cell Death Detection ELISA^PLUS, Roche Diagnostics, Indianapolis, Ind., USA) as previously described (Billard et al, Leuk Lymphoma 2002; 43: 1991-2002).

ESKOL cells [3] = assay: Annexin V-FITC labelling of ESKOL cells (phosphatidylserine externalisation, flow cytometry); format: cell-based, human; settings: 1 μg/ml, 24 hours; for % Annexin V+ cells: ESKOL cells, after subtraction of control value
Source text: The induction of apoptosis was further confirmed by assessing the percentage of cells expressing phosphatidylserine at the outer leaflet of the plasma membrane by flow cytometry.
The phosphatidylserine (PS) externalisation, a membrane marker of cells undergoing apoptosis, was quantified by specific binding of FITC-conjugated annexin V (Bender Medsystems, Vienna, Austria), with or without simultaneous labelling with propidium iodide (PI), according to a modification of the technique described by Koopman (Koopman et al, Blood 1994; 84:1415-1420). The percentages of annexin V-FITC positive and PI negative cells were determined by cytometry on an EPICS Altra flow cytometer (Beckman Coulter).
The ESKOL cells (10^6/ml) were cultured in the absence (C=control) or the presence of 1 μg/ml of the various Allanblackia molecules. After 24 hours of incubation, the percentage of cells labelled with Annexin V-FITC was measured by flow cytometry as previously indicated. Results are expressed after subtraction of the value for control unstimulated cells. P values were estimated by Kolmogorov-Smirnov analysis using the Statview software.

B-CLL cells = assay: MTT viability of freshly isolated B-CLL cells; format: cell-based, human; settings: FIG. 3, 6 B-CLL patients
Experimental: FIG. 3: The effect of the molecules M1, M2, M4, M5 and M6 on the viability of B-CLL cells was determined. Tumour cells freshly isolated from B-CLL patients were suspended at 2×10^6/ml in complete RPMI-1640 medium and incubated for 48 hours in the presence or absence of either 1 μg/ml (black bars) or 10 μg/ml (gray bars) of the various molecules. MTT was incorporated into the cells during the last 5 hours of incubation and the viability was measured by recording the formation of the formazan precipitate as described in the Examples section. The results are expressed as the percentage of the viability of the treated cells in comparison with control cells incubated with medium alone taken as 100% and represent the mean±SE of 6 B-CLL patients.
Blood samples from B-CLL patients were obtained from the Haematology Department of Hôtel-Dieu hospital (Paris, France) after written informed consent, in accordance with the rules and tenets of the revised Helsinki protocol. Diagnosis was established according to standard clinical and international CLL workshop criteria, including lymphocyte morphology and co-expression of CD5, CD20 and CD23 antigens. A total of 12 patients (6 men and 6 women) with an age ranging 50-84 years (mean±SD: 68±8.8 years) were selected and the time since diagnosis varied between 0 (newly diagnosed patients) and 10 years. The patients were randomly chosen for each type of experiment inasmuch as CD38 and ZAP-70 expression, cytogenetic analysis and mutational VH status were only available for a fraction of them, thus hampering a risk-group analysis. The leukemia B-cells were isolated with purity greater than 96%, as previously described (Zhao et al, Blood 1998; 92: 1031-1043). All the experiments were performed with freshly purified B-CLL leukemia cells.
M1, M2, M4, M5 and M6 were thus tested for their possible action on the viability of these leukemia cells by the MTT assay that relies on the integrity of the mitochondrial succinyl dehydrogenase.
(§1) Leukemia cells from B-CLL patients were adjusted at 2×10^6/ml and 200 μl aliquots were distributed in triplicate samples in the wells of a 96-well microtitration plate and cultured in the absence or presence of the various reagents. After 18 hours of incubation at 37° C. in a humidified atmosphere containing 5% CO2, 20 μl of a 5 mg/ml solution of MTT (Sigma, St Louis, Mo., USA) were added to the wells for an additional 6 hours incubation. The microplates were centrifuged at 400×g for 20 min, the supernatants carefully discarded and 200 μl of DMSO were added to the wells to dissolve the precipitates of formazan. The optical density was measured with the use of a microplate reader (Victor-2, Wallac, Perkin Elmer, Norwalk, Mont., USA) at the wavelength of 540 nm.

[4] = system: human A375 melanoma cell line; settings: Azebaze et al 2006; cited from earlier work
Plasmodium = settings: literature; cited from earlier work
normal PBMC = assay: MTT cytotoxicity on normal PBMC; format: cell-based, human; settings: 5 or 10 μg/ml, 48 hours; FIG. 5B
Experimental: (§2) FIG. 5: The effect of the compounds M1, M2, M4, M5 and M6 on the viability and apoptosis of normal lymphocytes was evaluated as indicated in the Examples section. A/ PBMC isolated from the blood of normal volunteers were incubated at 2×10^6/ml for 48 hours in the presence of medium alone (grey bar) or containing 1 μg/ml (black bar) or 10 μg/ml (slashed bars) of the different compounds. At the end of the incubation time, the percentage of enrichment in cytoplasmic nucleosomes was evaluated as indicated in the Examples Section. PBMC (A) and purified B lymphocytes (C) from normal blood donors were incubated for 48 hours with medium alone (grey bar) or containing 5 μg/ml (black bar) or 10 μg/ml (slashed bar) of the selected reagents M1, M2, M4 and M6. Viability was estimated after labelling the cells with a 5 hours pulse of MTT and determination of the absorbance at 540 nm as indicated in the Examples Section.
as §1
(§3) Blood samples from healthy donors were obtained from the Institut Francais du Sang as residues from platelet preparations. The healthy blood donors were under 60 years old, according to the French legislation, and therefore they could not be exactly age-matched with the B-CLL patients. PBMC were prepared as described elsewhere (Zhao et al, Blood 1998; 92: 1031-1043) and normal B-lymphocytes were purified by positive selection on anti-CD19-coated magnetic beads according to the specifications of the manufacturer (Dynal, Oslo, Norway) (Kern et al, Blood 2004; 103: 679-688). Their purity usually ranged from 92% to 95%, as estimated by labelling with an anti-CD20-phycoerythrin (PE) antibody, and monocyte contamination never exceeded 2% (Kern et al, Blood 2004; 103: 679-688).

purified B-lymphocytes = assay: MTT cytotoxicity on purified normal B-lymphocytes; format: cell-based, human; settings: 5 or 10 μg/ml, 48 hours; FIG. 5C
Experimental: as §2, §1, §3

histamine H1 receptor = settings: Chairungsrilerd et al 1996; cited from earlier work
[5] = system: human promyelocytic leukemia HL-60 cell line; settings: Matsumoto et al 2003; cited from earlier work
[6] = system: human colon cancer DLD-1 cells; settings: Matsumoto 2005; cited from earlier work
[7] = system: human A549 lung cancer cells; settings: Lee et al 2005, read-out: IC50 cytotoxic activity; cited from earlier work
[8] = system: SK-OV3 ovarian cancer cells; settings: Lee et al 2005, read-out: IC50 cytotoxic activity; cited from earlier work

Row | Molecule | proliferation of ESKOL cells (ESKOL cells [1]) | DNA breakdown (enrichment in cytoplasmic nucleosomes) in ESKOL cells (ESKOL cells [2]) | increase in the percentage of Annexin V positive ESKOL cells (in words) (ESKOL cells [3]) | % Annexin V+ cells (ESKOL cells [3]) [%] | viability of B-CLL cells (MTT) (B-CLL cells; 1 μg/ml) | viability of B-CLL cells (MTT) (B-CLL cells; 10 μg/ml) | cytotoxicity on A375 cell line [4] | antiplasmodial activity (Plasmodium) | cytotoxic effect on normal PBMC (MTT) (normal PBMC) | cytotoxic effect on purified normal B-lymphocytes (MTT) (purified B-lymphocytes) | histamine H1 receptor antagonism (histamine H1 receptor) | apoptosis induction in HL-60 cell line [5] | cell-cycle arrest and apoptosis in DLD-1 cells [6] | IC50 [7] [µM] | IC50 [8] [µM]
1 | CC(C)=CCC/C(C)=C/Cc1c(O)c(O)cc2oc3cc(O)c(CC=C(C)C)c(O)c3c(=O)c12 [M5, norcowanin] | markedly and dose-dependently slowed down the proliferation | potent inducers of DNA breakdown | to a lesser degree | 9.4 | no significant effect | marked reduction in the viability | weak cytotoxicity | antiplasmodial activity | – | – | – | – | – | – | –
2 | COc1c(O)cc2oc3cc(O)c(CC=C(C)C)c(O)c3c(=O)c2c1CC=C(C)C [M2, α-mangostin] | markedly and dose-dependently slowed down the proliferation | potent inducers of DNA breakdown | significant increase | 15.0 | no significant effect | marked reduction in the viability | – | displays antiplasmodial activity | somewhat sensitive | somewhat sensitive | histamine H1 receptor antagonist | induces apoptosis | induces cell-cycle arrest and apoptosis | – | –
3 | allanxanthone C [M4] | – | – | – | – | – | – | cytotoxicity | displays antiplasmodial activity | – | – | – | – | – | – | –
4 | CC(C)=CCc1c(O)cc2oc3c(c(=O)c2c1O)C(CC=C(C)C)(CC=C(C)C)C(=O)C(O)=C3 [M4, allanxanthone C] | markedly and dose-dependently slowed down the proliferation | potent inducers of DNA breakdown | to a lesser degree | 10.2 | no significant effect | marked reduction in the viability | – | – | no toxic effect | no toxic effect | – | – | – | – | –
5 | C=CC(C)(C)c1c2c(c(O)c3c(=O)c4ccc(O)c(O)c4oc13)C=CC(C)(C)O2 [M6, Macluraxanthone] | markedly and dose-dependently slowed down the proliferation | potent inducers of DNA breakdown | significant increase | 36.5 | no significant effect | marked reduction in the viability | – | – | somewhat sensitive | somewhat sensitive | – | – | – | 2.88 | 4.24
6 | COc1ccc2oc3cc(O)c(CC=C(C)C)c(O)c3c(=O)c2c1 [M1, 1,3 dihydroxy-7-methoxy-2(3-methylbut-2enyl)xanthone] | markedly and dose-dependently slowed down the proliferation | – | – | 5.6 | no significant effect | marked reduction in the viability | – | – | no toxic effect | no toxic effect | – | – | – | – | –
